# From patent publication US8470845B2, “Analgesic and methods of treating pain” (Toray Industries, Inc., priority 2004, dated 2013)
# Where a name gives a salt, the structure may show the parent alone. Read-outs that look alike come from different tables or passages of the source.
# System: male ddY mouse
# Assay: Analgesic activity test by mouse acetic acid writhing method
# Assay type: in vivo
# Conditions: subcutaneous, 15 minutes before i.p. 0.6% acetic acid, dosage to halve the number of writhing response
# Description: To each male ddY mouse, each test compound or the vehicle was subcutaneously administered in an administration volume of 0.1 mL/10 g body weight. Fifteen minutes later, 0.1 mL/10 g body weight of aqueous 0.6% (v/v) acetic acid solution was intraperitoneally administered. From 10 minutes after the administration of the acetic acid solution, the number of writhing response (i.e., the behavior to bend the body backward and/or twist the body) during 10 minutes was counted, and the analgesic activity was evaluated based on the number of writhing response. […] 10% Aqueous dimethylsulfoxide (DMSO) was used as a vehicle for test compounds 1, 2, 3, 4, 5, 6, 7, 8, 9, 10, 11, 12, 13, 14, 15, 16, 17, 18, 19, 20, 21 and 22. 0.1% Citric acid/aqueous 5% xylitol was used as a vehicle for test compounds 10f.
SMILES,"ED50 (Mus musculus, read-out: ED50)",ED50
"CCC/C=C1\CC(=O)N([C@@H]2CC[C@@]3(O)[C@H]4Cc5ccc(O)c6c5[C@@]3(CCN4CC3CC3)[C@H]2O6)C1=O [Compound 6, N-(17-cyclopropylmethyl-4,5α-epoxy-3,14-dihydroxy-morphinan-6β-yl)-2-butylidene succinic imide.tartaric acid salt]",0.48 mg/kg,–
"O=C1C(Cc2ccccc2)CCN1[C@@H]1CC[C@@]2(O)[C@H]3Cc4ccc(O)c5c4[C@@]2(CCN3CC2CC2)[C@H]1O5 (stereo partly drawn) [Compound 3, 1-(17-cyclopropylmethyl-4,5α-epoxy-3,14-dihydroxy-morphinan-6β-yl)-3-benzyl-pyrrolidine-2-one.tartaric acid salt]",0.28 mg/kg,–
"O=C1C(Cc2ccccc2)CCN1[C@H]1CC[C@@]2(O)[C@H]3Cc4ccc(O)c5c4[C@@]2(CCN3CC2CC2)[C@H]1O5 (mixture of isomers) [Compound 4, 1-(17-cyclopropylmethyl-4,5α-epoxy-3,14-dihydroxymorphinan-6α-yl)-3-benzyl-pyrrolidine-2-one (diastereomer mixture).tartaric acid salt]",0.26 mg/kg,–
"O=C1c2ccccc2CN1[C@@H]1CC[C@@]2(O)[C@H]3Cc4ccc(O)c5c4[C@@]2(CCN3CC2CC2)[C@H]1O5 [Compound 5, 2-(17-cyclopropylmethyl-4,5α-epoxy-3,14-dihydroxy-morphinan-6β-yl)-2,3-dihydroisoindol-1-one.tartaric acid salt]",0.071 mg/kg,–
"O=C1c2ccccc2C(=O)N1[C@@H]1CC[C@@]2(O)[C@H]3Cc4ccc(O)c5c4[C@@]2(CCN3CC2CC2)[C@H]1O5 [Compound 10, N-(17-cyclopropylmethyl-4,5α-epoxy-3,14-dihydroxymorphinan-6β-yl)-phthalimide.hydrochloric acid salt]",0.031 mg/kg,–
"O=C1c2cc3ccccc3cc2C(=O)N1[C@@H]1CC[C@@]2(O)[C@H]3Cc4ccc(O)c5c4[C@@]2(CCN3CC2CC2)[C@H]1O5 [Compound 16, N-(17-cyclopropylmethyl-4,5α-epoxy-3,14-dihydroxy-morphinan-6β-yl)naphthalenedicarboxylic imide.hydrochloric acid salt]",0.31 mg/kg,–
"Cc1ccc2c(c1)C(=O)N([C@@H]1CC[C@@]3(O)[C@H]4Cc5ccc(O)c6c5[C@@]3(CCN4CC3CC3)[C@H]1O6)C2=O [Compound 11, N-(17-cyclopropylmethyl-4,5α-epoxy-3,14-dihydroxy-morphinan-6β-yl)-4-methylphthalimide.hydrochloric acid salt]",0.045 mg/kg,–
"O=C1c2cc(Cl)c(Cl)cc2C(=O)N1[C@@H]1CC[C@@]2(O)[C@H]3Cc4ccc(O)c5c4[C@@]2(CCN3CC2CC2)[C@H]1O5 [Compound 17, N-[17-(cyclopropylmethyl)-4,5α-epoxy-3,14-dihydroxymorphinan-6β-yl]]-4,5-dichlorophthalimide.tartaric acid salt]",0.27 mg/kg,–
"C=CCN1CC[C@]23c4c5ccc(O)c4O[C@H]2[C@@H](N2C(=O)c4ccccc4C2=O)CC[C@@]3(O)[C@H]1C5 [Compound 9, N-(17-allyl-4,5α-epoxy-3,14-dihydroxymorphinan-6α-yl)-phthalimide.tartaric acid salt]",0.14 mg/kg,–
"O=C1c2ccc(F)cc2C(=O)N1[C@@H]1CC[C@@]2(O)[C@H]3Cc4ccc(O)c5c4[C@@]2(CCN3CC2CC2)[C@H]1O5 [Compound 13, N-(17-cyclopropylmethyl-4,5α-epoxy-3,14-dihydroxy-morphinan-6β-yl)-4-fluorophthalimide.tartaric acid salt]",0.037 mg/kg,–
"Cc1cccc2c1C(=O)N([C@@H]1CC[C@@]3(O)[C@H]4Cc5ccc(O)c6c5[C@@]3(CCN4CC3CC3)[C@H]1O6)C2=O [Compound 15, N-(17-cyclopropylmethyl-4,5α-epoxy-3,14-dihydroxy-morphinan-6β-yl)-3-methylphthalimide.tartaric acid salt]",0.03 mg/kg,–
"O=C1c2ccc(Cl)cc2C(=O)N1[C@@H]1CC[C@@]2(O)[C@H]3Cc4ccc(O)c5c4[C@@]2(CCN3CC2CC2)[C@H]1O5 [Compound 12, N-(17-cyclopropylmethyl-4,5α-epoxy-3,14-dihydroxy-morphinan-6β-yl)-4-chlorophthalimide.tartaric acid salt]",0.29 mg/kg,–
"O=C1C=CC(=O)N1[C@@H]1CC[C@@]2(O)[C@H]3Cc4ccc(O)c5c4[C@@]2(CCN3CC2CC2)[C@H]1O5 [Compound 22, N-(17-cyclopropylmethyl-4,5α-epoxy-3,14-dihydroxy-morphinan-6β-yl)-maleic imide.tartaric acid salt]",2.18 mg/kg,–
"Cl.O=C1CCCN1[C@@H]1CC[C@@]2(O)[C@H]3Cc4ccc(O)c5c4[C@@]2(CCN3CC2CC2)[C@H]1O5 [Compound 1, 1-(17-cyclopropylmethyl-4,5α-epoxy-3,14-dihydroxy-morphinan-6β-yl)pyrrolidine-2-one-hydrochloric acid salt]",2.62 mg/kg,–
"O=C(O)C(O)C(O)C(=O)O.O=C1C2=C(CCCC2)C(=O)N1[C@@H]1CC[C@@]2(O)[C@H]3Cc4ccc(O)c5c4[C@@]2(CCN3CC2CC2)[C@H]1O5 [Compound 19, N-(17-cyclopropylmethyl-4,5α-epoxy-3,14-dihydroxy-morphinan-6β-yl)-3,4,5,6-tetrahydrophthalimide.tartaric acid salt]",–,0.032 mg/kg
"Cl.O=C1CCCN1[C@H]1CC[C@@]2(O)[C@H]3Cc4ccc(O)c5c4[C@@]2(CCN3CC2CC2)[C@H]1O5 [Compound 2, 1-(17-cyclopropylmethyl-4,5α-epoxy-3,14-dihydroxy-morphinan-6α-yl)pyrrolidine-2-one-hydrochloric acid salt]",0.95 mg/kg,–
"O=C1c2cccc(F)c2C(=O)N1[C@@H]1CC[C@@]2(O)[C@H]3Cc4ccc(O)c5c4[C@@]2(CCN3CC2CC2)[C@H]1O5 [Compound 14, N-(17-cyclopropylmethyl-4,5α-epoxy-3,14-dihydroxy-morphinan-6β-yl)-3-fluorophthalimide.tartaric acid salt]",0.034 mg/kg,–
"C=CCN1CC[C@]23c4c5ccc(O)c4O[C@H]2[C@@H](N2C(=O)c4cccc(F)c4C2=O)CC[C@@]3(O)[C@H]1C5 [Compound 8, N-(17-allyl-4,5α-epoxy-3,14-dihydroxy-morphinan-6α-yl)-3-fluorophthal-imide.tartaric acid salt]",0.03 mg/kg,–
"O=C(O)C(O)C(O)C(=O)O.Oc1ccc2c3c1O[C@H]1[C@H](N4CCCC4)CC[C@@]4(O)[C@@H](C2)N(CC2CC2)CC[C@]314 [Compound 20, 17-cyclopropylmethyl-4,5α-epoxy-6β-(pyrrolidine-1-yl)-morphinan-3,14-diol.tartaric acid salt, reference compound]",–,>10 mg/kg
"O=C(O)C(O)C(O)C(=O)O.O=C1c2ccccc2C(=O)N1[C@@H]1CC[C@@]2(O)[C@H]3Cc4ccc(O)c5c4[C@@]2(CCN3CC2CC2)[C@H]1O5 [Compound 18, N-(17-cyclopropylmethyl-4,5α-epoxy-3,14-dihydroxy-morphinan-6β-yl)-phthalimide.tartaric acid salt]",–,0.019 mg/kg
"C=CCN1CC[C@]23c4c5ccc(O)c4O[C@H]2[C@H](N2C(=O)c4ccc(F)cc4C2=O)CC[C@@]3(O)[C@H]1C5 [Compound 7, N-(17-allyl-4,5α-epoxy-3,14-dihydroxymorphinan-6β-yl)-4-fluorophthalimide.tartaric acid salt]",0.033 mg/kg,–
"O=C1CCC(=O)N1[C@@H]1CC[C@@]2(O)[C@H]3Cc4ccc(O)c5c4[C@@]2(CCN3CC2CC2)[C@H]1O5 [Compound 21, N-(17-cyclopropylmethyl-4,5α-epoxy-3,14-dihydroxy-morphinan-6β-yl)-succinic imide.tartaric acid salt]",3.37 mg/kg,–
